In PubChem BioAssay AID1996:
Converted amounts (≈) assume the structure as drawn.

Settings: buffer; pH 7.4; 200.0 µM

SMILES | solubility kinetic [µg/mL]
O=C(COC(=O)c1ccc(Br)o1)NCc1ccc2c(c1)OCO2 | 29.9 (≈ 78.2 µM)
CC(C)COP(=O)(c1ccc(N(C)C)cc1)C(O)c1ccccc1 (configuration not stated) | > 52.1
O=C(CN1C(=O)NC2(CCCC2)C1=O)NCc1ccc(F)cc1 | > 47.9
O/N=C\c1ccc2noc(-c3ccc(Cl)cc3)c2c1 | < 0.3
COc1ccc(Cl)cc1C(=O)NCC(c1ccco1)N(C)C (configuration not stated) | 45.1 (≈ 140 µM)
CCN1C(=O)NC(c2ccc(Cl)cc2)C2=C1CCCC2=O (configuration not stated) | 44.2 (≈ 145 µM)
CN(C)/C=C/C(=O)c1ccccc1 | > 26.3
Cc1nc2sc3c(c2c(=O)[nH]1)CCCCC3 | 2 (≈ 8.54 µM)
O=C1C2=C(CCCC2)C(=O)N1CNc1ccccc1 | 33 (≈ 129 µM)
Cc1onc(-c2ccccc2)c1C(=O)N(Cc1ccccc1)C(C)C | > 50.2
CCN(CC)C(=O)CN1C(=O)c2cccc3cccc1c23 | > 42.4
O=C(NC(=S)Nc1cccc([N+](=O)[O-])c1)C1CCCCC1 | < 0.2
Nc1ccc(S(=O)(=O)NC(Cc2ccccc2)C(=O)O)cc1 (configuration not stated) | 32.9 (≈ 103 µM)
COCc1nnc(NC(=O)C2CC(=O)N(C3CCCCC3)C2)s1 (configuration not stated) | > 50.8
COCC(=O)Nc1ccc(N2CCN(c3ccccc3)CC2)c(F)c1 | 2 (≈ 5.82 µM)
Cc1cc(O)c(CN2CC=C(c3ccccc3)CC2)cc1C(C)C | 1.2 (≈ 3.73 µM)
C=CCn1c([O-])c(C(C)=O)c(=O)[nH]c1=O.C[NH+](C)C | > 40.4
COCc1cc(C)nc(SCc2ccc(F)cc2)c1C#N | 1.1 (≈ 3.64 µM)
Cc1ccc(CN2CCN(CC(=O)NCc3ccccc3)CC2)cc1 | 2.2 (≈ 6.52 µM)
COc1ccccc1NC(=O)Nc1cccc(NC(C)=O)c1 | 34.2 (≈ 114 µM)
CCOc1ccccc1NC(=O)COC(=O)C1CCC(=O)N1 (configuration not stated) | > 45.9
CC(C)(C)C(=O)N1c2ccccc2CCc2ccccc21 | 28.7 (≈ 103 µM)
O=C(Nc1sc2c(c1C(=O)O)CCCCC2)c1ccccc1 | > 47.3
COc1ccc(OC)c(NC(=O)Cn2cc(C=O)c3ccccc32)c1 | 2.5 (≈ 7.39 µM)

SMILES | solubility kinetic [µg/mL]
Cc1ccc(S(=O)(=O)c2nc(-c3ccccc3Cl)oc2N(C)C2CCN(C)CC2)cc1 | > 69
COc1ccc(N2CCOCC2)c(NC(=O)c2ccco2)c1 | 38.4 (≈ 127 µM)
CCN(CC)S(=O)(=O)c1ccc2c(c1)NC(=O)C1CCCN21 (configuration not stated) | 46.6 (≈ 144 µM)
O=C(Nc1ccc([N+](=O)[O-])cc1)Nc1cnccn1 | 2.9 (≈ 11.2 µM)
O=C(NCCCn1ccnc1)c1ccccc1Cl | > 39.6
CCOc1cccc2cc(C(=O)NCc3ccc(C)cc3)c(=N)oc12 | 2.4 (≈ 7.13 µM)
CC(C)(CO)NC(=O)c1ccc2c(c1)C(=O)c1ccccc1-2 | 43.7 (≈ 148 µM)
CCN1C(=O)CSC1=Nc1ccccc1Cl | 27.9 (≈ 110 µM)
O=C(c1ccc2ccccc2n1)N1CCN(c2ccccn2)CC1 | > 47.8
COc1ccc(NC(=O)c2cc(F)c(F)cc2Cl)cc1Cl | < 0.7
CN(C)c1nc2ncn(Cc3ccccc3)c2c(=O)[nH]1 | > 40.4
CC(=O)Nc1ccc(C(=O)NCCCSc2ccccc2)cc1 | 5.3 (≈ 16.1 µM)
Cc1ccsc1C(=O)OCC(=O)NC1CCCC1 | > 40.1
CC(C)CC1NC(=O)N(CC(=O)Nc2cc(S(=O)(=O)N3CCOCC3)ccc2Cl)C1=O (configuration not stated) | 8.2 (≈ 17.3 µM)
O=C(Nc1ccccc1Cl)NC1(C(=O)N2CCOCC2)CCCCC1 | 25.8 (≈ 70.5 µM)
CCN(CC)c1ccc(C(=O)N/N=C(\C)c2cccnc2)cc1 | > 46.6
CN1CCN(c2ccc(F)cc2N)CC1 | > 31.4
CCOP(=O)(OCC)C(NC(=O)c1cccc(C)c1)C(Cl)(Cl)Cl (configuration not stated) | 56.3 (≈ 140 µM)
C=COCCCNc1ncnc2sc(-c3ccccc3)cc12 | 1.4 (≈ 4.5 µM)
CC(C)N1C(=O)CCC1C(=O)NCc1cccs1 (configuration not stated) | > 40
FC(F)(F)Sc1ccc(NC(=S)NCc2ccccc2)cc1 | < 0.4
Cc1ccc(C(=O)COC(=O)C(C)N2C(=O)C3C4C=CC(C4)C3C2=O)cc1C (configuration not stated) | 55.5 (≈ 146 µM)
Cc1cccc(C)c1NC(=O)c1c(O)c2ccccc2[nH]c1=O | 0.5 (≈ 1.62 µM)
